Source: patent US20040224943A1, “Method of lowering body temperature with (R) - 2,3-benzodiazepines” (priority 2003, published 2004)

Experiments:
[1] = tested on: mice; experiment: Stress Induced Hyperthermia (SIH) assay; assay type: in vivo; conditions: for lowering the core body temperature: 64 mg/kg intraperitoneally 60 minutes before T1, at both T1 and T2
Experimental: In this assay, two successive temperature measurements are performed, the first, a basal measurement and the second, a measurement of a stress-enhanced temperature. The difference between the two measurements (delta T) is compared in animals treated with a test compound versus animals treated with vehicle alone to determine the test compound's activity in lowering body temperature. […] Besides the effect of drugs on the stress-enhanced temperature (T2), this test also directly measures intrinsic effects of drugs on the core body temperature (T1). Thus a test compound that reduces T2 and thus yields a lower delta T has utility in therapies that are directed to lowering the body temperature of an individual, such as perimenopause and menopause.
Mice, individually housed overnight, were subjected to two sequential rectal temperature measurements ten minutes apart. The first measurement is the basal temperature (T1), the second one the stress-enhanced temperature (T2). The difference (delta T) is the stress-induced hyperthermia. See, Van der Heyden et al., “Stress-induced hyperthermia in singly housed mice,” Physiology and Behavior, 463-470, (1997).
Test animals (group housed mice) were assigned to five groups of ten animals each. The test groups were dosed according to Table 2 below.
The test animals were isolated in an experimental room approximately one hour before lights off on the day before the test. On the day of testing, animals were taken quietly from the cage, held in a supine position, the rectal temperature was measured and the animal was placed back into the cage. The same procedure was repeated 10 minutes later. The first temperature (T1), the second temperature (T2) and the difference (delta T) were recorded. The test compounds were administered intraperitonealy 60 minutes before T1, in order to prevent the stress of being injected from affecting the temperature measurements.

[2] = tested on: central BZ receptors; conditions: cited from earlier work
[3] = molecular target: peripheral BZ receptors (Homo sapiens, UniProt P30536); conditions: cited from earlier work
[4] = tested on: lymphocyte; conditions: in vitro, cited from earlier work
[5] = tested on: mice; conditions: cited from earlier work
[6] = tested on: rats; conditions: cited from earlier work
[7] = tested on: mice; conditions: reported in U.S. Pat. No. 4,322,346; cited from earlier work

peripheral BZ receptors, sequence (P30536 whole entry): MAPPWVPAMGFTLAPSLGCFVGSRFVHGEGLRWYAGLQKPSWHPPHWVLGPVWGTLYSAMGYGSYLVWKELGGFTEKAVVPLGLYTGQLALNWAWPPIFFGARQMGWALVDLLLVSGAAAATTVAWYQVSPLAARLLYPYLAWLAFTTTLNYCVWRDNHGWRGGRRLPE

SMILES	lowering the core body temperature [1]	inhibition of aggression [5] [%]	inhibition of muricide [6] [%]	also measured
CCC1C(C)=NN=C(c2ccc(OC)c(OC)c2)c2cc(OC)c(OC)cc21 (racemic) [tofisopam]	demonstrates activity in lowering the core body temperature			interaction with central BZ receptors [2]: does not interact; binding to peripheral BZ receptors [3]: binds only weakly; IL-2 production ([4]; mitogen-induced): enhances; mitogen-induced lymphocyte proliferation [4]: enhances
CC[C@H]1C(C)=NN=C(c2ccc(OC)c(OC)c2)c2cc(OC)c(OC)cc21 [(R)-tofisopam, (R)-1-(3,4-dimethoxyphenyl)-4-methyl-5-ethyl-7,8-dimethoxy-5H-2,3-benzodiazepine]	demonstrated therapeutic activity			sedation, abnormal gait, ptosis, muscle tone, lacrimation, reactivity to touch ([1]; 64 mg/kg intraperitoneally, compared with (S)-enantiomer or racemate): less sedation, abnormal gait, or ptosis, decreased muscle tone, decreased lacrimation, or decreased reactivity to touch
CC[C@@H]1C(C)=NN=C(c2ccc(OC)c(OC)c2)c2cc(OC)c(OC)cc21 [(S)-tofisopam, (S)-1-(3,4-dimethoxyphenyl)-4-methyl-5-ethyl-7,8-dimethoxy-5H-2,3-benzodiazepine]	more active than either the racemate or the (R)-enantiomer			
CCC1C(C)=NN=C(c2ccc(OC)c(OC)c2)c2cc(OC)c(O)cc21 (stereo not drawn) [Compound 1, 1-(3,4-dimethoxyphenyl)-4-methyl-5-ethyl-7-hydroxy-8-methoxy-5H-2,3-benzodiazepine]		0	20	
CCC1C(C)=NN=C(c2ccc(O)c(OC)c2)c2cc(OC)c(OC)cc21 (stereo not drawn) [Compound 3, 1-(3-methoxy-4-hydroxyphenyl)-4-methyl-5-ethyl-7,8-dimethoxy-5H-2,3-benzodiazepine]		0	0	narcosis-potentiating activity [7]: narcosis-potentiating activity
CCC1C(C)=NN=C(c2ccc(O)c(OC)c2)c2cc(OC)c(O)cc21 (stereo not drawn) [Compound 5, 1-(3-methoxy-4-hydroxyphenyl)-4-methyl-5-ethyl-7-hydroxy-8-methoxy-5H-2,3-benzodiazepine]		28.6	20	
